Test system: mice
Experiment: Acute toxicity by intravenous administration
Assay type: in vivo
Details: intravenously administered to tail vein in five mice at the dose of 50 mg/kg
Description: On the other hand, it was confirmed that the acute toxicity of all extent of the compounds of the present invention was more than 50 mg/kg by intravenous administration. Therefore, glycerol derivatives of the present invention may be considered to be sufficiently safe and suitable for medical use. For example, the mortality (dead/used) in glycerol derivatives of the present invention, i.e. compounds prepared in Example 1(h) and 11(a) was 0/5 and 0/5, respectively, when each glycerol compound was intravenously administered to tail vein in five mice at the dose of 50 mg/kg.

Structure (SMILES)	mortality (dead/used)
CCCCCCCCCCCCCCCCOCC(COCCCCCCC[N+]1(C)CCCC1)NC(C)=O (centres unmarked) [11(a)]	0/5
CCCCCCCCCCCCCCCCOCC(COCCCCCCC[n+]1ccsc1)OCC (centres unmarked) [Example 1(h)]	0/5

Reference: EP0146258A2, “Glycerol derivatives” (ONO PHARMACEUTICAL CO., LTD., priority 1983, dated 1985)
